System: patients with metastatic and/or recurrent breast cancer
Test: Phase III clinical trial of DPPE/doxorubicin versus doxorubicin alone, overall survival
Type: in vivo, human
Procedure: In the treatment of stage I or II breast cancer, the diphenyl compound preferably is used in an amount of about 3 to about 10 mg/kg of patient, administered intravenously over a period of about 30 to about 90 minutes prior to administration of the chemotherapeutic agent(s) and continuing for the period of administration of the chemotherapeutic agent(s). In the specific Phase III clinical trial described herein conducted on patients with metastatic and/or recurrent breast cancer, there was employed 5.3 mg/kg of DPPE in the form of the base (equivalent to 6 mg/kg of DPPE in the form of its hydrochloride), administered intravenously as an aqueous solution thereof over 80 minutes, with the last twenty minutes being accompanied by infusion of the specific chemotherapeutic agent.
The chemotherapy agent active in breast cancer which is employed herein preferably is used in a total amount of about 50 to about 75 mg/M^2 of patient for doxorubicin or epirubicin, about 175 to about 225 mg/M^2 for Taxol and about 75 to about 100 mg/M^2 for Taxotere. In the specific Phase III clinical trial described herein conducted on patients with metastatic and/or recurrent breast cancer, there was employed 60 mg/M^2 of doxorubicin administered over the last 20 minutes of infusion of the DPPE solution.
Patients were treated with doxorubicin (DOX) alone or a combination of doxorubicin and DPPE. […]
The survival time for patients was determined for those patients with metastatic breast cancer receiving no prior chemotherapy treatment in relation to those who had received prior chemotherapy treatment, and for patients that had received no previous treatment type (namely, chemotherapy, radiotherapy and/or hormone treatment) and those who had received previous treatment. The survival times were determined for patients receiving the DPPE/DOX combination and DOX alone.

Q: With `COc1cccc2c1C(=O)c1c(O)c3c(c(O)c1C2=O)C[C@@](O)(C(=O)CO)C[C@@H]3O[C@H]1C[C@H](N)[C@H](O)[C@H](C)O1` [DOX, doxorubicin] as the compound, how does the median overall survival (patients with metastatic disease who had estrogen receptor-negative tumors, FIG. 3) read?
A: Its median overall survival is 9.3 months.

Q: And the median overall survival (patients with metastatic disease who had no previous chemotherapy, DPPE 5.3 mg/kg iv over 80 min, doxorubicin 60 mg/M^2 over last 20 min, FIG. 1)?
A: The median overall survival was 16.2 months.

Q: What about the median overall survival (patients with metastatic disease who had no previous treatment (chemotherapy, radiotherapy and/or hormone treatment), FIG. 2) of the same compound?
A: Its median overall survival is 15 months.
